These antisense oligonucleotides have a phosphorothioate backbone; sugars and methylation of C are not fully specified.

Data on 57 sequences can be found in the OligoGym collection.
Further: test concentration or dose not given here.

The first data set addresses RIPK2. The note with it: ASO.
The sequence TTATCTGCAAAGGATTGGTG showed a remaining target (mRNA or protein) (fraction of control) of 0.45.
ATTTTCATGGAGCTGAGAGG registered a remaining target (mRNA or protein) (fraction of control) of 0.68.
Turning to TTACATGCTTTTATTTTGAA, the remaining target (mRNA or protein) (fraction of control) worked out at 0.5.
Same read-out and setting: then GTCAGTAGTGTCTAGTAATT, with 0.52; and TCTTTCATGATCAAGTCCCT, with 0.42; and GCAGGTCGGCGAGTTTGTGG, with not below 1.
Turning to ATAAAGCTTTAATACTCACG, the remaining target (mRNA or protein) (fraction of control) was determined as 0.93.
The sequence CGTTCATGGTCCCGGGCGCT returned a remaining target (mRNA or protein) (fraction of control) of 0.76.
ATGGCCTCCCCGTTCATGGT: the remaining target (mRNA or protein) (fraction of control) turned out to be 0.51.
Still for that read-out and setting: then ATGCAGCCCTTTGAGAACCA, with 0.18; and CACCAAGGGCAATTTCATGC, with 0.15.
In turn, CCTCCCCGTTCATGGTCCCG showed a remaining target (mRNA or protein) (fraction of control) of 0.24.
In the case of ATTGCATCTTAGACAAGTAA, the remaining target (mRNA or protein) (fraction of control) is not below 1.
GATAATTGTCCCTCCTTCTG yielded a remaining target (mRNA or protein) (fraction of control) not below 1.
Still for that read-out and setting: then TTTCCTATGTAGGAGTTCAT, with not below 1.
Consider GGCCTCCCCGTTCATGGTCC, for which the remaining target (mRNA or protein) (fraction of control) is 0.45.
As for CCACAAGTATTTCCGGGTAA, the remaining target (mRNA or protein) (fraction of control) was 0.36.
On the same count and under the same terms, as for TGGTCCCGGGCGCTCAGGCC, the figure is 0.23.
Consider CCCGTTCATGGTCCCGGGCG, for which the remaining target (mRNA or protein) (fraction of control) was 0.6.
The sequence AAATAACAGTCTTGAGCTTT showed a remaining target (mRNA or protein) (fraction of control) of 0.73.
For TCCCCGTTCATGGTCCCGGG, the remaining target (mRNA or protein) (fraction of control) came out at 0.24.
As for CGAACCAGAGCTGACTTCTT, the remaining target (mRNA or protein) (fraction of control) stood at 0.28.
In the case of TGCATAGCTATATATATCGT, the remaining target (mRNA or protein) (fraction of control) is 0.77.
ATACTTCATAAAATCAAATT gave a remaining target (mRNA or protein) (fraction of control) not below 1.
The sequence CATGGTCCCGGGCGCTCAGG returned a remaining target (mRNA or protein) (fraction of control) not below 1.
On to AGGCTTCTGTCATTTGGTTC, for which the remaining target (mRNA or protein) (fraction of control) amounted to 0.3.
Same read-out and setting: then TATCCTTTTATGAAACACAT, with 0.69; and AAGCCTGGGATTTTAGGGCA, with 0.15; and CCAGGCTGCAGACGTTCTGA, with 0.3.

Another data set deals with RHOG. The settings on record: ASO.
In turn, GTCAGCAAATGCGTAAGG came in with a remaining target (mRNA or protein) (fraction of control) of 0.76.
In turn, AACTGTGTGGAAAGCTGG gave a remaining target (mRNA or protein) (fraction of control) of 0.92.
The sequence CGCGAGTGCCTGGCCCTG gave a remaining target (mRNA or protein) (fraction of control) of 0.91.
Same read-out and setting: as for GGCAGTGCCTCCTCTCTC, the figure is 0.65; as for AAGAGGATGCAGGACCGC, 0.82; as for AAAGCGTTAGTTGTGTAG, not below 1.

Another data set addresses PRKAR2A. The note with it: ASO.
In turn, CATGCCGGCGGCGGCCGAAG showed a remaining target (mRNA or protein) (fraction of control) not below 1.
Regarding CTGACACCTCTAGTGATTTA, the remaining target (mRNA or protein) (fraction of control) is not below 1.
In turn, ATGTGGCTCATGCCGGCGGC showed a remaining target (mRNA or protein) (fraction of control) of 0.95.
Sequence CGGGATCTGGATGTGGCTCA came in with a remaining target (mRNA or protein) (fraction of control) of 0.81.
On to GCATGTTTATACTTTGGACT, for which the remaining target (mRNA or protein) (fraction of control) worked out at 0.83.
With ATCTGTATCTTCCTCTTCCT, the remaining target (mRNA or protein) (fraction of control) amounted to 0.73.
As for TACTAAAATGTCATAAGTTC, the remaining target (mRNA or protein) (fraction of control) is not below 1.
In turn, CAATGACATGCTCATCAGCT gave a remaining target (mRNA or protein) (fraction of control) of 0.74.
Regarding GGATGTGGCTCATGCCGGCG, the remaining target (mRNA or protein) (fraction of control) turned out to be 0.94.
In turn, GGATCTGGATGTGGCTCATG had a remaining target (mRNA or protein) (fraction of control) of 0.71.
On the same count and under the same terms, as for ATAACTAAGCATTTGACATC, the figure is 0.94.
With AATGCCCATAACCACAGCAA, the remaining target (mRNA or protein) (fraction of control) turned out to be 0.39.
The sequence CGCACGGCCCCGGCTCACGT showed a remaining target (mRNA or protein) (fraction of control) of 0.68.
On the same count and under the same terms, as for AAGGAGAATATCTTTGCAAG, the figure is not below 1; as for TGCAGCAGCTCCGTGAGCCC, 0.57.
The sequence TGAGTGATTATGCGTTCTCC yielded a remaining target (mRNA or protein) (fraction of control) of 0.8.
On the same count and under the same terms, then GAGAGACATGCCGTTTTGAA, with 0.51; and TTGAACCTCTGCCCATCCTT, with 0.39.
Still for that read-out and setting: as for TTCTAAAAGTCACCCGGTCC, the figure is 0.39; as for GGCTCATGCCGGCGGCGGCC, 0.62; as for GCTGTTCCTCATAGTGTGAG, not below 1.
As to CTCATGCCGGCGGCGGCCGA, the remaining target (mRNA or protein) (fraction of control) was determined as 0.96.
